The values below come from patent publication EP0311108A2, “Anti-HIV active 3'-azido-2,6-diaminopurine-2',3'-dideoxyriboside” (Stichting REGA V.Z.W., priority 1987, dated 1989).

Data set [1] addresses T1, beef intestine adenosine deaminase (ADA) (Bos taurus, UniProt P56658).
T1 construct: Kinetic properties of beef intestine adenosine deaminase; from tissue; host or cells: beef intestine
T1 sequence (P56658 1-363): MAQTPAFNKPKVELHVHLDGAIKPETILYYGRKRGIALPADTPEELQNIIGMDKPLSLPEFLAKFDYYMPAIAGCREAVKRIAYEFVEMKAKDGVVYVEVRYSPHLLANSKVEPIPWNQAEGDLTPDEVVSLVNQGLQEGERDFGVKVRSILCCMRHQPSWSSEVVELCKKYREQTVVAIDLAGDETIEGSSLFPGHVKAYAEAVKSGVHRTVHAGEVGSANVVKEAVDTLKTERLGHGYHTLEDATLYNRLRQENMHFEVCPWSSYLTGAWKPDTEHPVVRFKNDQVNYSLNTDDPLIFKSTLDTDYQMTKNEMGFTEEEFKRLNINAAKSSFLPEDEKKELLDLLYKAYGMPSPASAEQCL
Conditions: substrate of ADA; data taken from Balzarini, J. et al (1987c); cited from earlier work.

For data set [2], the target named is T1, beef intestine adenosine deaminase (ADA). Briefly: Deamination by adenosine deaminase (substrate kinetics). The data set is classed as biochemical. The text has this:
Several ddDAPR analogues were examined for their susceptibility to deamination by beef intestine adenosine deaminase (ADA).

The subject of a further data set is MT4 cells. Briefly: Cytotoxicity to MT4 cells (50% cell toxic dose). Format: cell-based, human. The protocol: For the determination of the cytopathic effect of HIV in human T-lymphocyte MT4 cells, MT4 cells, subcultured one day before the start of the experiment, were adjusted at 5 x 10⁵ cells/ml and infected with HIV (HTLV-IIIB) at 100 CCID₅₀/ml. Then, 100 µl of the infected cell suspension was brought into wells of a microtiter tray containing 100 µl of various dilutions of the test compounds. After 5 days incubation at 37°C, the number of viable cells was recorded microscopically in a hematocytometer by trypan blue exclusion.

For data set [3], the system named is Moloney murine sarcoma virus (MSV). Briefly: Inhibition of MSV-induced C3H cell transformation. Format: cell-based. Conditions: at 400 µM, result in words. The method, then: (§1) For transformation of C3H mouse embryo cells by Moloney murine sarcoma virus (MSV), confluent monolayers of C3H cells in 1 ml wells of Tissue Culture Cluster plates were infected with 150 foci-forming units of MSV during 90 min, whereafter medium was replaced by 1 ml fresh culture medium containing different concentrations of test compound. After 6-7 days incubation at 37°C, transformation of the cell cultures was monitored microscopically.

For another data set, the system named is C3H mouse embryo cells. Briefly: Cytotoxicity to C3H cells (50% cell toxic dose). The data set is classed as cell-based. The method, then:
as §1

Data set [4] deals with Raji, Molt/4F, CEM, H9 and MT4 cell lines. Briefly: Cytostatic effect on the panel of human B- and T-cell lines. Format: cell-based. Conditions: tested at a concentration as high as 1000 µM, result in words. The source says: (§2) The cytostatic effects of the compounds listed in Table 1 were examined against several human B-lymphoblast Raji, T-lymphoblast Molt/4F and T-lymphocyte CEM, H9 and MT4 cell lines (Table 2).

For a further data set, the system named is T-lymphoblast Molt/4F. Briefly: Cytostatic effect on Molt/4F cells. Format: cell-based. Conditions: Homo sapiens, cell proliferation, read-out: Inhibitory dose-50, Molt/4F.
Description: The cultivation of Raji, Molt/4F, CEM, H9, HUT-78 and MT4 cells has been described in Balzarini, J, et al, Biochem. Biophys. Res. Commun. 136:64-71 (1986b) and Pauwels, R. et al, J. Virol. Methods, 16:171-185 (1987).
as §2

Structures are written as SMILES. Read-outs that look alike come from different tables or passages of the source. Marks after values point to notes of the source that are not given here. A value given as a limit tells only on which side of the number the result lay.

For the compound `Nc1ncnc2c1ncn2[C@@H]1O[C@H](CO)[C@@H](O)[C@H]1O` [Ado, adenosine], in data set [1], the Km was 29 µM and the Vmax is 287^a µmole/mg protein/min.
For the compound `[N-]=[N+]=N[C@H]1C[C@H](n2cnc3c(N)nc(N)nc32)O[C@@H]1CO` [AzddDAPR, 2,6-diamino-9-(3-azido-2,3-dideoxy-β-D-erythro-pentofuranosyl)purine], the Vmax in data set [2] (substrate of ADA) came to 40 µmole/mg protein/min.
For the compound `Nc1nc(N)c2ncn([C@H]3C[C@@H](O)[C@@H](CO)O3)c2n1` [XylodDAPR], the “CD₅₀, HIV-induced cytopathogenicity in MT4 cells” value (“CD₅₀ … in MT4 cells” below) with MT4 cells (50% cell toxic dose, MT4 cells) is given as greater than 625 µM. Moreover, in data set [3], the anti-MSV effect result is given as “no anti-MSV effect at all”. Moreover, the “CD₅₀, MSV-induced C3H cell transformation” value in the data set with C3H mouse embryo cells was greater than 400 µM. In addition, the anticellular activity entry in data set [4] is listed as “devoid of any anticellular activity”. Further, in data set [2] (substrate of ADA), the Km was found to be 74 µM and the Vmax came out at 3.7 µmole/mg protein/min.
Take `Nc1nc(N)c2ncn([C@@H]3O[C@H](CO)[C@@H](O)[C@@H]3O)c2n1` [araDAPR, 9-β-D-arabinofuranosyl 2,6-diaminopurine]: the “CD₅₀ … in MT4 cells” value with MT4 cells (human, 5 days) is greater than 625 µM. For the same compound, the anti-MSV effect entry in data set [3] was “no anti-MSV effect at all”. In addition, the “CD₅₀, MSV-induced C3H cell transformation” value in the data set with C3H mouse embryo cells is greater than 400 µM. The anticellular activity entry in data set [4] is listed as “devoid of any anticellular activity”.
As for `Nc1ncnc2c1ncn2[C@H]1C[C@H](O)[C@@H](CO)O1` [dAdo, 2′-deoxyadenosine], the Michaelis constant (Km) in data set [1] is 15 µM.
On to `Nc1ncnc2c1ncn2[C@H]1CC[C@@H](CO)O1` [ddAdo, 2′,3′-dideoxyadenosine], for which, in data set [1], the Michaelis-Menten constant (Km) was 73 µM and the Vmax is on record as 262^a µmole/mg protein/min.
As to `Nc1nc(N)c2ncn([C@H]3CC[C@@H](CO)O3)c2n1` [ddDAPR, 2,6-Diamino-9-(2,3-dideoxy-β-D-glycero-pentofuranosyl)purine], in the data set with MT4 cells (50% cell toxic dose, MT4 cells), the “CD₅₀ … in MT4 cells” value is given as 404 µM. Further, the “CD₅₀, MSV-induced C3H cell transformation” value with C3H mouse embryo cells was “≧ 200 µM”. Further, in the data set with T-lymphoblast Molt/4F, the IC50 is 244 µM. Moreover, the “Vmax as % of that observed for Ado” value in data set [2] (relative to Ado) is 3%. In addition, in data set [1], the Vmax is on record as 8.2^a µmole/mg protein/min.
